# Test results taken from patent US5169963A, “Di-(5-hydroxy-2(5H)2-oxo-4-furyl)alkylmethyl-alpha,omega alkanedioates and N,N-bis-(5-hydroxy-2(5H)2-oxo-4-furyl)alkylmethyl-alpha,omega-dialkanoic acid amides as anti-inflammatory agents” (Allergan, Inc., priority 1991, dated 1992).
# Tests used:
# [1] = biological target: bee venom phospholipase A2 (Apis mellifera, UniProt P00630); assay: biochemical; conditions: read-out: PLA2 IC50
# [2] = biological target: phosphoinositide-specific phospholipase C; assay: Inhibition of Phosphoinositide-specific Phospholipase C; type: biochemical; conditions: procedure of Bennett et al, Molecular Pharmacology 32:587-593 (1987); read-out: PLC IC50
# Description: Inhibition of Phosphoinositide-specific Phospholipase C
# The effect of compounds of this invention on phosphoinositide-specific phospholipase C may be determined by procedures described by Bennett et al, Molecular Pharmacology 32:587-593 (1987).
# Sequence of bee venom phospholipase A2 (P00630 34-167 limits assumed): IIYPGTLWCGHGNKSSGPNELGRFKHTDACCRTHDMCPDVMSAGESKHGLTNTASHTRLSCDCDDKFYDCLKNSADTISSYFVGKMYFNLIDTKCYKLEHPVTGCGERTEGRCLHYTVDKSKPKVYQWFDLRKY
Compound,IC50 [1] [nM],IC50 [2] [nM]
"CCCCCCC(OC(=O)CC(=O)OC(CCCCCC)C1=CC(=O)OC1O)C1=CC(=O)OC1O (centres unmarked) [Compound 4, Di[(1-5-hydroxy-2(5H)2-oxo-4-furyl)heptyl]malonate]",30,–
CCCCCCCCCCCCC(OC(=O)CCCC(=O)OC(CCCCCCCCCCCC)C1=CC(=O)OC1O)C1=CC(=O)OC1O (centres unmarked) [Compound 2],30,–
"CCCCCCCCCCCCC(OC(=O)CC(=O)OC(CCCCCCCCCCCC)C1=CC(=O)OC1O)C1=CC(=O)OC1O (centres unmarked) [Compound 1, Bis[1-(5-hydroxy-2(5H)-furano-4-yl)tridecyl]malonate]",20,2000
"CC(=CCCC1=CCC(C2=CC(=O)OC2O)OC1O)CCC1=C(C)CCCC1(C)C (centres unmarked) [manoalide, Manoalide, reference compound]",–,3000
